These results are taken from ChEMBL document CHEMBL5291721, “A preclinical secondary pharmacology resource illuminates target-adverse drug reaction associations of marketed drugs” (Nat Commun, 2023).

Among the targets are Motilin receptor (Homo sapiens, UniProt O43193); Vasopressin V2 receptor (Homo sapiens, UniProt P30518); Adenosine receptor A2a (Homo sapiens, UniProt P29274).
Assay [1] has as its target T1, Muscarinic acetylcholine receptor M1 (Homo sapiens, UniProt P11229).
T1 sequence (P11229 whole entry): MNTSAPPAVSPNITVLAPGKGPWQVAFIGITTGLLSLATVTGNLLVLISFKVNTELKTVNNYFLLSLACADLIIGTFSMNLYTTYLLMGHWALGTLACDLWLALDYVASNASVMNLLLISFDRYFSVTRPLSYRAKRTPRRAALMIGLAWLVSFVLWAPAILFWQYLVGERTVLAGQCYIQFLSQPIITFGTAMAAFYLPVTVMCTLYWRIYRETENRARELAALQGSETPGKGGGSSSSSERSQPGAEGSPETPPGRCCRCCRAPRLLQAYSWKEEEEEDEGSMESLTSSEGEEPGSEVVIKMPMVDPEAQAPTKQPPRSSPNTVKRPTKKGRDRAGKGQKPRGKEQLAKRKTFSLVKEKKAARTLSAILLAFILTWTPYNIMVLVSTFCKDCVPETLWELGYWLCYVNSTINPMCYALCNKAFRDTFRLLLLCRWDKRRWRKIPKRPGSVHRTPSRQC
It counts as functional, cell-based.

For assay [2], the target named is T1, Muscarinic acetylcholine receptor M1. It counts as functional, cell-based. The source holds these as a separate data set.
A further assay deals with T2, Thromboxane A2 receptor (Homo sapiens, UniProt P21731).
T2 sequence (P21731 whole entry): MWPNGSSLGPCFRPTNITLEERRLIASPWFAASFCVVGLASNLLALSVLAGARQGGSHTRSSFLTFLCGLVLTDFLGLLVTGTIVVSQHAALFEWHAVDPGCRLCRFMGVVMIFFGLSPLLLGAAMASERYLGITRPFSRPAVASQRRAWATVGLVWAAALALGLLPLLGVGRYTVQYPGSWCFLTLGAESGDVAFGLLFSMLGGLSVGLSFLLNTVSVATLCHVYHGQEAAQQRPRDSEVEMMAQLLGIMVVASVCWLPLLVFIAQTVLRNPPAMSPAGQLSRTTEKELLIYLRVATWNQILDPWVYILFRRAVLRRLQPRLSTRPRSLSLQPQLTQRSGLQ

Assay [3] addresses 5-hydroxytryptamine receptor 2B (Homo sapiens, UniProt P41595). It counts as functional, cell-based.
Assay [4] has as its target Sodium-dependent dopamine transporter (Homo sapiens, UniProt Q01959).
The target in assay [5] is Gamma-aminobutyric acid receptor subunit alpha-1 (Rattus norvegicus, UniProt P62813).
Gamma-aminobutyric acid receptor subunit alpha-1, sequence (P62813 whole entry): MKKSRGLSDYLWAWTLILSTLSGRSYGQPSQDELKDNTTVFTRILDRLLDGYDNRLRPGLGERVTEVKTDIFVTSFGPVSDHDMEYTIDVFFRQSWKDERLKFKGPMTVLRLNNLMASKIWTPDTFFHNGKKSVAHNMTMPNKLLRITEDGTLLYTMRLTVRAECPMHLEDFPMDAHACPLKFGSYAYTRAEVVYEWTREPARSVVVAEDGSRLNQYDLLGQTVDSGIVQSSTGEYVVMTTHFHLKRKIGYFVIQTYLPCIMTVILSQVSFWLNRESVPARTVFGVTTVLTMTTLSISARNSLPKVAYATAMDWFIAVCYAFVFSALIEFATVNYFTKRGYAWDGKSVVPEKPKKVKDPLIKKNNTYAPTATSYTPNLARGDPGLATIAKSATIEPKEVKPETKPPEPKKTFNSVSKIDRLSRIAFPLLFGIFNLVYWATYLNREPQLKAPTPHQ
The target of assay [6] is Delta-type opioid receptor (Homo sapiens, UniProt P41143).
Delta-type opioid receptor, sequence (P41143 whole entry): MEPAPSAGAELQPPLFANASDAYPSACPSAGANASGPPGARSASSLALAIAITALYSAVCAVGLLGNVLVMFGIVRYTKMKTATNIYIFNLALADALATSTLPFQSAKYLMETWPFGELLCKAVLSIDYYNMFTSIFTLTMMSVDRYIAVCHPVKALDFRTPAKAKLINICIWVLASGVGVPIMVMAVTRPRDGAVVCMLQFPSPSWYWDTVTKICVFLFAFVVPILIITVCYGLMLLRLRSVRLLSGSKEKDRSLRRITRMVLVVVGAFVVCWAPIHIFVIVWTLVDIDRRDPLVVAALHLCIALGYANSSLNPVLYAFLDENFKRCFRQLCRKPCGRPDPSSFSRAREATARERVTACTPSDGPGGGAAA
Assay [7] has as its target Glutamate receptor ionotropic, NMDA 1 (Rattus norvegicus, UniProt P35439).
Assay [8] concerns the target T3, Cholecystokinin receptor type A (Homo sapiens, UniProt P32238).
T3 sequence (P32238 whole entry): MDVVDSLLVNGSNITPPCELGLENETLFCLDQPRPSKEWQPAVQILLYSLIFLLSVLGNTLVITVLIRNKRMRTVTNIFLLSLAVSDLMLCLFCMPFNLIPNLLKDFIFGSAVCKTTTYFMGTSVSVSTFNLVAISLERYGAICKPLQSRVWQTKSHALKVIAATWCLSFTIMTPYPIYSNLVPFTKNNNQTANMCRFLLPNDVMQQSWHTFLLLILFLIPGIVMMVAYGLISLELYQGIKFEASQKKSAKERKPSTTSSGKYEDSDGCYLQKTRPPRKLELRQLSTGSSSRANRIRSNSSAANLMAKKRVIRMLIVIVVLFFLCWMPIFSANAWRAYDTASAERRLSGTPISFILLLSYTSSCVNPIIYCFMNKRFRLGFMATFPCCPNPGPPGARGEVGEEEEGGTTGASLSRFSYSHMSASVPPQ

Assay [9] concerns the target T4, Type-1 angiotensin II receptor (Homo sapiens, UniProt P30556).
T4 sequence (P30556 whole entry): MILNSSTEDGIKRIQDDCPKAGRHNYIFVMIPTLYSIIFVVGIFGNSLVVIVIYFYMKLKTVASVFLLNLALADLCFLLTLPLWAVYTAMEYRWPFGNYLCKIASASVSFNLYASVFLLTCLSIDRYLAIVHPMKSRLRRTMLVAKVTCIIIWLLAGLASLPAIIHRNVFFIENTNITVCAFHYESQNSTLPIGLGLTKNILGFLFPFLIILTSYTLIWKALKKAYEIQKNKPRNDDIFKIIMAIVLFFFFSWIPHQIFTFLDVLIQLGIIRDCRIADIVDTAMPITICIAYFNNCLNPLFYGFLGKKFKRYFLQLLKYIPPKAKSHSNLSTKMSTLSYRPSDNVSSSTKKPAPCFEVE

Assay [10] has as its target T5, Amine oxidase [flavin-containing] A (Homo sapiens, UniProt P21397).
T5 sequence (P21397 whole entry): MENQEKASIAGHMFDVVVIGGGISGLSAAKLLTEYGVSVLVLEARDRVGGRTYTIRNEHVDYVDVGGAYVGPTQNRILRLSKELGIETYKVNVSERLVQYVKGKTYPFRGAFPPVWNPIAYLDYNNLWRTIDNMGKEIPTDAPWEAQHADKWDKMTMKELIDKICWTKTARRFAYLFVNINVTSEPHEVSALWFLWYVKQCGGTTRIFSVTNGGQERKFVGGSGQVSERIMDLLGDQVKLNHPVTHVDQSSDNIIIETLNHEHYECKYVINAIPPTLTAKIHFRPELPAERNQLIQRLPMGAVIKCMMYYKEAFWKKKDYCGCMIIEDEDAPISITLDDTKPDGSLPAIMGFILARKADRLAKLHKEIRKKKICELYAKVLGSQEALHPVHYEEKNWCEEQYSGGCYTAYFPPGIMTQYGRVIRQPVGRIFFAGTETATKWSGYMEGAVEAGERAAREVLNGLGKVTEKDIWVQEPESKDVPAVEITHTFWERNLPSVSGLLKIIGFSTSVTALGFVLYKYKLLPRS
It counts as functional.

By AC50 is commonly meant the midpoint of the concentration-response curve, whichever way the signal moves. The low end stands for greater potency, the high end for weaker potency.
Also: assay procedure not described here.

Motilin receptor, sequence (O43193 whole entry): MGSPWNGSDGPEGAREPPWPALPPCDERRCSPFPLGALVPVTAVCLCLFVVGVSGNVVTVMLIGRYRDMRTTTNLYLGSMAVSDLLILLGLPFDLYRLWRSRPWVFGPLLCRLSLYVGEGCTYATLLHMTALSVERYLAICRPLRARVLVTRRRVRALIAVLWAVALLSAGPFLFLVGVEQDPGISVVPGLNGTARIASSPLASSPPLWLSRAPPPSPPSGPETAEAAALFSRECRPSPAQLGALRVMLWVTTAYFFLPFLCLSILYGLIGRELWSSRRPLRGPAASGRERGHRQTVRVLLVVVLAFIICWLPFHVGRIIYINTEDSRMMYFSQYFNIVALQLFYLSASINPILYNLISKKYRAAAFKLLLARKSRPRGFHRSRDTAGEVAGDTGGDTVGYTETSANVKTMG
Adenosine receptor A2a, sequence (P29274 whole entry): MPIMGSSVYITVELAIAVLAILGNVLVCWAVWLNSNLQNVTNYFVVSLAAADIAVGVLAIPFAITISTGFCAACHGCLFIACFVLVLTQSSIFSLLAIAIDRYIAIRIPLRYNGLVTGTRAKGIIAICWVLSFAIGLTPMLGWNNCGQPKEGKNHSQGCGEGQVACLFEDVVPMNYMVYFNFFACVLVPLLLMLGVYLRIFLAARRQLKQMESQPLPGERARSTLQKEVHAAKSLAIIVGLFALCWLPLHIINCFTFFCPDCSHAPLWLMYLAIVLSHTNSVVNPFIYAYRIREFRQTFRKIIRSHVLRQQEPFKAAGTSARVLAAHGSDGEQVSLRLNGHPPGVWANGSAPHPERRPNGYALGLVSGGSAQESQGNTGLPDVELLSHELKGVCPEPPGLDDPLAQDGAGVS
Vasopressin V2 receptor, sequence (P30518 whole entry): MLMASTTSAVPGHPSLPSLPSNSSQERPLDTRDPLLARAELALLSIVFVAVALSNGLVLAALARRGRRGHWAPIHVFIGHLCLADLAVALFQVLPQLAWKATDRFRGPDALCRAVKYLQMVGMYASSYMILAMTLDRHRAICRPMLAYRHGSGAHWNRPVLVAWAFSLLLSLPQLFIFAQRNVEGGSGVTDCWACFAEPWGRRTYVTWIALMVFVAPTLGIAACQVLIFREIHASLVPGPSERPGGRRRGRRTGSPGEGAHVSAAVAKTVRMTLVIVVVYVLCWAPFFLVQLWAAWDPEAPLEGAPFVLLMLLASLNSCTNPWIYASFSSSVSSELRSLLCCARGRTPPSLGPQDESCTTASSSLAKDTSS
Sodium-dependent dopamine transporter, sequence (Q01959 whole entry): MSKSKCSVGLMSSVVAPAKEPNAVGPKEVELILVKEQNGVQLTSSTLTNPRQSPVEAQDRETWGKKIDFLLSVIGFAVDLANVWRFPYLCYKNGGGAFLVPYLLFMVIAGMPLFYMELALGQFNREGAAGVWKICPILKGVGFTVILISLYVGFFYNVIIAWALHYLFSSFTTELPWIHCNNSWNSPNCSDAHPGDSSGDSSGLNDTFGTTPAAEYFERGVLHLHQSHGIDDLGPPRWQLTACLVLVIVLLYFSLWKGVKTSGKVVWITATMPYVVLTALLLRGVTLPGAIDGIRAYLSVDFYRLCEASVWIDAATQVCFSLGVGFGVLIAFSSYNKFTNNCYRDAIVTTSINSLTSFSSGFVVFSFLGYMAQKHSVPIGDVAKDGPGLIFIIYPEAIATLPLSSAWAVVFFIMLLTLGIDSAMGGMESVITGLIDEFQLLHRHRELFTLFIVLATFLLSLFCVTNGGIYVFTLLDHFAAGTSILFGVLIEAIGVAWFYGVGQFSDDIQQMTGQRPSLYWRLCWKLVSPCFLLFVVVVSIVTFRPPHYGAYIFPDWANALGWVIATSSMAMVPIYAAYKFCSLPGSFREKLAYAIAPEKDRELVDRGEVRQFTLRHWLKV
5-hydroxytryptamine receptor 2B, sequence (P41595 whole entry): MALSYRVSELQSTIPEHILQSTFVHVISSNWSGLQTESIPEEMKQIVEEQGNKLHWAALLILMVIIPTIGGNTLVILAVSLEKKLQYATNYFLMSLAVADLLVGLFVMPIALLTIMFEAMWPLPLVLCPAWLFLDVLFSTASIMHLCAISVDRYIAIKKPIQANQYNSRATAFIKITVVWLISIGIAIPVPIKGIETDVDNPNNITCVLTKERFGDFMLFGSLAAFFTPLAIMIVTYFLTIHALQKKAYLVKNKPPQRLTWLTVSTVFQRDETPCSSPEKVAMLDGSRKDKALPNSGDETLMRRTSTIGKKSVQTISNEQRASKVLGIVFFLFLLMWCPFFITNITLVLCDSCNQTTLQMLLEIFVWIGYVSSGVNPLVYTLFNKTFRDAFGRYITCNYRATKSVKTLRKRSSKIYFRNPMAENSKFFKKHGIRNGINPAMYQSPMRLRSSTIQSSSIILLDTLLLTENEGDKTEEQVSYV

With `Nc1ccncc1` [DALFAMPRIDINE], the AC50 was above 3 µM in [1] and 27.9 µM in [2].

In the case of `Cc1onc(-c2c(Cl)cccc2Cl)c1C(=O)N[C@@H]1C(=O)N2[C@@H]1SC(C)(C)[C@@H]2C(=O)O` [DICLOXACILLIN], the concentration at half-maximal activity (AC50) in [1] and in assay [2] was above 30 µM in each case.

As to `C[C@@H](O)[C@H]1C(=O)N2C(C(=O)O)=C([C@H]3CCCO3)S[C@H]12` [FAROPENEM], the concentration at half-maximal activity (AC50) in assay [1] and in assay [2] was above 30 µM throughout.

For the molecule `COCCOc1cnc(NS(=O)(=O)c2ccccc2)nc1` [GLYMIDINE], the concentration at half-maximal activity (AC50) in assay [1] and in [2] was above 30 µM throughout.

Regarding `CC(N)CCCC(C)(C)O` (stereo not drawn) [HEPTAMINOL], the AC50 in [1] and in assay [2] was above 30 µM in each case.

For `CCC(=O)O[C@]1(C(=O)COC(C)=O)CC[C@H]2[C@@H]3CCC4=CC(=O)CC[C@]4(C)[C@H]3[C@@H](O)C[C@@]21C` [HYDROCORTISONE ACEPONATE], the half-maximal activity concentration (AC50) in [1] is 19.3 µM; in assay [2], above 30 µM.

`O=[N+]([O-])O[C@H]1CO[C@H]2[C@@H]1OC[C@H]2O[N+](=O)[O-]` [ISOSORBIDE DINITRATE]: the concentration at half-maximal activity (AC50) in assay [1] and in assay [2] was above 30 µM throughout.

`Cc1cc(CCN2CCN(c3cccc(Cl)c3)CC2)n[nH]1` [MEPIPRAZOLE]: the half-maximal activity concentration (AC50) was 26.3 µM in assay [1] and above 30 µM in assay [2].

On to `CC[N+](C)(CC)CCOC(=O)C1c2ccccc2Oc2ccccc21` [METHANTHELINE], for which the AC50 in [1] is 0.0287 µM; in assay [2], above 30 µM.

With `CCOC(=O)[C@H](CCc1ccccc1)N[C@@H](C)C(=O)N1Cc2cc(OC)c(OC)cc2C[C@H]1C(=O)O` [MOEXIPRIL], the half-maximal activity concentration (AC50) in [1] and in assay [2] was above 30 µM in each case.

As for `CC(c1ccc(Cl)c(Cl)c1)N1N=C(N)CC1=O` (stereo not drawn) [MUZOLIMINE], the AC50 in assay [1] and in [2] was above 30 µM throughout.

For the molecule `CCN(CC)CCOC(=O)C(Cc1cccc2ccccc12)CC1CCCO1` (stereo not drawn) [NAFRONYL], the AC50 in assay [1] is 24.2 µM; in assay [2], above 30 µM.

Take `N[C@@H](Cc1c[nH]c2ccc(O)cc12)C(=O)O` [OXITRIPTAN]: the half-maximal activity concentration (AC50) in [1] and in assay [2] was above 30 µM each time.

Take `O=C(O)c1cc(O)c2c3nc4ccccc4oc-3cc(=O)c2n1` [PIRENOXINE]: the half-maximal activity concentration (AC50) (at Thromboxane A2 receptor; in assay [3]; at Motilin receptor; in [4]; on Vasopressin V2 receptor; in [5]) was above 30 µM in each case. The half-maximal activity concentration (AC50) in assay [6] was 2.2 µM; at Adenosine receptor A2a, above 30 µM; in assay [7], above 30 µM; in assay [8], 5.1 µM; in assay [9], above 30 µM; in assay [10], 2.2 µM.

Consider `NS(=O)(=O)c1cc(C(=O)O)cc(N2CCCC2)c1Oc1ccccc1` [PIRETANIDE], for which the half-maximal activity concentration (AC50) (at Thromboxane A2 receptor; in assay [3]; at Motilin receptor; in assay [4]; on Vasopressin V2 receptor; in assay [5]) was above 30 µM each time. For the same molecule, the AC50 (in assay [6]; on Adenosine receptor A2a; in [7]; in assay [8]; in assay [9]; in assay [10]) was above 30 µM in each case.

In the case of `CNCCCC1c2ccccc2C=Cc2ccccc21` [PROTRIPTYLINE], the concentration at half-maximal activity (AC50) on Thromboxane A2 receptor is above 10 µM; in assay [3], 3.8 µM; on Motilin receptor, above 10 µM; in assay [4], 17.8 µM; on Vasopressin V2 receptor, above 10 µM; in assay [5] it was above 10 µM. The AC50 in assay [6] is above 30 µM; at Adenosine receptor A2a it was above 10 µM; in assay [7] it was above 10 µM; in assay [8], above 10 µM; in assay [9] it was above 10 µM; in assay [10], above 10 µM.

As to `CO[C@H]1/C=C/O[C@@]2(C)Oc3c(C)c(O)c4c(O)c(cc(O)c4c3C2=O)NC(=O)/C(C)=C\C=C\[C@H](C)[C@H](O)[C@@H](C)[C@@H](O)[C@@H](C)[C@H](OC(C)=O)[C@@H]1C` [RIFAMYCIN], in assay [2], the AC50 was 11.6 µM.

Take `CC(C)=CCOc1ccc(/C=C/C(=O)c2ccc(OCC=C(C)C)cc2OCC(=O)O)cc1` [SOFALCONE]: the AC50 was 13 µM on Thromboxane A2 receptor; above 30 µM in assay [3]; above 30 µM at Motilin receptor; 13 µM in [4]; above 30 µM at Vasopressin V2 receptor; above 30 µM in [5]. The AC50 in assay [6] is 26 µM; on Adenosine receptor A2a it was above 30 µM; in assay [7], above 30 µM; in assay [8] it was above 30 µM; in [9], 7.5 µM; in [10], above 30 µM.

As for `CCSc1ccc2c(c1)N(CCCN1CCN(C)CC1)c1ccccc1S2` [THIETHYLPERAZINE], the AC50 is 15 µM in [4], above 30 µM on Adenosine receptor A2a, 29.1 µM in assay [2] and above 30 µM in assay [10].

For the molecule `CN(C)c1cc(NC(=O)CNC(C)(C)C)c(O)c2c1C[C@H]1C[C@H]3[C@H](N(C)C)C(O)=C(C(N)=O)C(=O)[C@@]3(O)C(O)=C1C2=O` [TIGECYCLINE], the concentration at half-maximal activity (AC50) (at Thromboxane A2 receptor; in [3]; at Motilin receptor; in [4]; at Vasopressin V2 receptor; in assay [5]) was above 30 µM throughout. Moreover, the concentration at half-maximal activity (AC50) (in assay [6]; at Adenosine receptor A2a; in [7]; in assay [8]; in [9]; in [10]) was above 30 µM throughout.

In the case of `OCCN1CCN(CC/C=C2/c3ccccc3Sc3ccc(Cl)cc32)CC1` [ZUCLOPENTHIXOL], the half-maximal activity concentration (AC50) at Thromboxane A2 receptor is above 10 µM; in assay [3] it was 0.92 µM; on Motilin receptor, above 10 µM; in [4], 1 µM; at Vasopressin V2 receptor it was above 10 µM; in [5], above 10 µM. Besides, the concentration at half-maximal activity (AC50) in [6] is above 30 µM; on Adenosine receptor A2a it was above 10 µM; in [7], above 10 µM; in [8] it was above 10 µM; in assay [9], above 30 µM; in assay [10], above 10 µM.
